{"source": "patent US20190022152A1", "about": "“MICROBIOME RESPONSE TO AGENTS” (Yeda Research and Development Co., Ltd., priority 2014, published 2019)", "key": {"[1]": {"tested_on": "fecal microbiota", "method": "(§1) Frozen fecal samples were processed for DNA isolation using the MoBio PowerSoil kit according to the manufacturer's instructions. 1 ng of the purified fecal DNA was used for PCR amplification and sequencing of the bacterial 16S rRNA gene. ˜365 bp Amplicons spanning the variable region 2 (V2) of the 16S rRNA gene were generated by using the following barcoded primers: Fwd 5′-[…]-3′ (SEQ ID NO: 3), Rev 5′-[…]-3′ (SEQ ID NO: 4). […] Reads were then processed using the QIIME (Quantitative Insights Into Microbial Ecology) analysis pipeline as described, version 1.8. Paired-end joined sequences were grouped into operational taxonomic units (OTUs) using the UCLUST algorithm and the greengenes database. Sequences with distance-based similarity of 97% or greater over median sequence length of 353 bp were assigned to the same OTU. Samples were grouped according to the treatment. Analysis was performed at each taxonomical level (Phylum-genus+OTU level) separately. For each taxon, G test was performed between the different groups. P-values were FDR corrected for multiple hypothesis testing."}, "[2]": {"tested_on": "microbiota of germ-free recipient mice", "description": "C57Bl/6 WT adult male mice were randomly assigned (without blinding) to treatment groups and were given commercial artificial sweeteners (saccharin-, sucralose- or aspartame-based) or pure saccharin (Sigma Aldrich) in drinking water and fed a high-fat (HFD D12492, 60% Kcal from fat, Research Diets) or standard polysaccharide normal chow (NC) diet (Harlan-Teklad). Compared groups were always fed from the same batch of diet. For antibiotic treatment, mice were given a combination of ciprofloxacin (0.2 gl^−1) and metronidazole ([…]) or vancomycin (0.5 gl^−1) in their drinking water. All antibiotics were obtained from Sigma Aldrich. Adult male outbred Swiss-Webster mice (a widely used mouse strain in germ-free experiments) served as recipients for fecal transplants and were housed in sterile isolators (Park Biosciences). For fecal transplantation experiments, 200 mg of stool (from mouse pellets or human swabs) was resuspended in 5 ml of PBS under anaerobic conditions, vortexed for 3 minutes and allowed to settle by gravity for 2 minutes. Recipient mice were gavaged with 200 μl of the supernatant and maintained on standard NC diet and water throughout the experiment.\npooled fecal matter from naïve adult WT C57Bl/6 male mice was resuspended in 5 ml PBS in an anaerobic chamber (Coy Laboratory Products, 75% N2, 20% CO2, 5% H2), vortexed for 3 minutes and allowed to settle by gravity for 2 minutes. […] were added to a tube containing Chopped Meat Carbohydrate Broth, PR II (BD) and […] of a 5 mgml-1 saccharin solution or an equal volume of PBS. Every 3 days, 500 ml of culture were diluted to fresh medium containing saccharin or PBS. After 9 days, cultures were used for inoculation of germ-free mice.\nas §1"}, "[3]": {"conditions": "GF recipients of D7 vs D1 microbiome from human responder"}, "[4]": {"conditions": "GF recipients of saccharin-enriched culture, day 6, level 2"}}, "data": [{"smiles": "O=C1NS(=O)(=O)c2ccccc21", "note": "[saccharin]", "values": [{"measurement": "microbiota composition (dysbiosis)", "setting": "[1]; mice consuming pure saccharin and HFD", "value": "dysbiosis was observed"}, {"measurement": "operational taxonomic units (OTUs) significantly altered in abundance", "setting": "[1]; saccharin-consuming mice vs all control groups, week 11, FDR corrected p<0.05 (FIG. 21: commercial saccharin)", "value": "> 40"}, {"measurement": "decrease in Candidatus Arthromitus", "setting": "[2]; [3]", "value": "~10", "unit": "fold"}, {"measurement": "relative increase of Bacteroides fragilis", "setting": "[2]; [3]", "value": 20, "unit": "fold"}, {"measurement": "relative increase of Weissella ciboria", "setting": "[2]; [3]", "value": 20, "unit": "fold"}, {"measurement": "Saccharin Enriched D6: p_Bacteroidetes", "setting": "[2]; [4]", "value": 0.611}, {"measurement": "Saccharin Enriched D6: p_Firmicutes", "setting": "[2]; [4]", "value": 0.3649}, {"measurement": "Saccharin Enriched D6: p_Tenericutes", "setting": "[2]; [4]", "value": 0.02291}, {"measurement": "Saccharin Enriched D6: p_Bacteroidetes; c_Bacteroidia", "setting": "[2]; GF recipients, day 6, level 3", "value": 0.6108}, {"measurement": "Saccharin Enriched D6: p_Firmicutes; c_Bacilli", "setting": "[2]; GF recipients, day 6, level 3", "value": 0.3122}, {"measurement": "Saccharin Enriched D6: p_Firmicutes; c_Clostridia", "setting": "[2]; GF recipients, day 6, level 3", "value": 0.05266}, {"measurement": "Saccharin Enriched D6: p_Proteobacteria; c_Gammaproteobacteria", "setting": "[2]; GF recipients, day 6, level 3", "value": 0.0001278}, {"measurement": "Saccharin Enriched D6: p_Tenericutes; c_Mollicutes", "setting": "[2]; GF recipients, day 6, level 3", "value": 0.02291}, {"measurement": "Saccharin Enriched D6: c_Bacilli; o_Lactobacillales", "setting": "[2]; GF recipients, day 6, level 4", "value": 0.3116}, {"measurement": "Saccharin Enriched D6: c_Bacteroidia; o_Bacteroidales", "setting": "[2]; GF recipients, day 6, level 4", "value": 0.6108}, {"measurement": "Saccharin Enriched D6: c_Clostridia; o_Clostridiales", "setting": "[2]; GF recipients, day 6, level 4", "value": 0.05266}, {"measurement": "Saccharin Enriched D6: c_Gammaproteobacteria; o_Enterobacteriales", "setting": "[2]; GF recipients, day 6, level 4", "value": 0.0001248}, {"measurement": "Saccharin Enriched D6: c_Mollicutes; o_Anaeroplasmatales", "setting": "[2]; GF recipients, day 6, level 4", "value": 0.02291}, {"measurement": "Saccharin Enriched D6: o_Anaeroplasmatales; f_Anaeroplasmataceae", "setting": "[2]; GF recipients, day 6, level 5", "value": 0.02291}, {"measurement": "Saccharin Enriched D6: o_Bacteroidales; f_Bacteroidaceae", "setting": "[2]; GF recipients, day 6, level 5", "value": 0.467}, {"measurement": "Saccharin Enriched D6: o_Bacteroidales; f_Porphyromonadaceae", "setting": "[2]; GF recipients, day 6, level 5", "value": 0.1379}, {"measurement": "Saccharin Enriched D6: o_Bacteroidales; f_S24-7", "setting": "[2]; GF recipients, day 6, level 5", "value": "7.066E−05"}, {"measurement": "Saccharin Enriched D6: o_Bacteroidales; f_[Odoribacteraceae]", "setting": "[2]; GF recipients, day 6, level 5", "value": 0.004319}, {"measurement": "Saccharin Enriched D6: o_Clostridiales; f_", "setting": "[2]; GF recipients, day 6, level 5", "value": 0.04275}, {"measurement": "Saccharin Enriched D6: o_Clostridiales; f_Clostridiaceae", "setting": "[2]; GF recipients, day 6, level 5", "value": 0.005131}, {"measurement": "Saccharin Enriched D6: o_Clostridiales; f_Dehalobacteriaceae", "setting": "[2]; GF recipients, day 6, level 5", "value": 0.0008389}, {"measurement": "Saccharin Enriched D6: o_Clostridiales; f_Ruminococcaceae", "setting": "[2]; GF recipients, day 6, level 5", "value": 0.003365}, {"measurement": "Saccharin Enriched D6: o_Enterobacteriales; f_Enterobacteriaceae", "setting": "[2]; GF recipients, day 6, level 5", "value": 0.0001248}, {"measurement": "Saccharin Enriched D6: o_Lactobacillales; f_Lactobacillaceae", "setting": "[2]; GF recipients, day 6, level 5", "value": 0.3087}, {"measurement": "Saccharin Enriched D6: o_Lactobacillales; f_Streptococcaceae", "setting": "[2]; GF recipients, day 6, level 5", "value": 0.0009772}, {"measurement": "Saccharin Enriched D6: f_Anaeroplasmataceae; g_Anaeroplasma", "setting": "[2]; GF recipients, day 6, level 6", "value": 0.02291}, {"measurement": "Saccharin Enriched D6: f_Bacteroidaceae; g_Bacteroides", "setting": "[2]; GF recipients, day 6, level 6", "value": 0.467}, {"measurement": "Saccharin Enriched D6: f_Clostridiaceae; g_Candidatus Arthromitus", "setting": "[2]; GF recipients, day 6, level 6", "value": 0.005047}, {"measurement": "Saccharin Enriched D6: f_Clostridiaceae; g_Clostridium", "setting": "[2]; GF recipients, day 6, level 6", "value": "4.209E−05"}, {"measurement": "Saccharin Enriched D6: f_Dehalobacteriaceae; g_Dehalobacterium", "setting": "[2]; GF recipients, day 6, level 6", "value": 0.0008389}, {"measurement": "Saccharin Enriched D6: f_Enterobacteriaceae; g_", "setting": "[2]; GF recipients, day 6, level 6", "value": 0.0001248}, {"measurement": "Saccharin Enriched D6: f_Lachnospiraceae; g_[Ruminococcus]", "setting": "[2]; GF recipients, day 6, level 6", "value": "7.818E−05"}, {"measurement": "Saccharin Enriched D6: f_Lactobacillaceae; g_Lactobacillus", "setting": "[2]; GF recipients, day 6, level 6", "value": 0.3087}, {"measurement": "Saccharin Enriched D6: f_Porphyromonadaceae; g_Parabacteroides", "setting": "[2]; GF recipients, day 6, level 6", "value": 0.1379}, {"measurement": "Saccharin Enriched D6: f_Ruminococcaceae; g_", "setting": "[2]; GF recipients, day 6, level 6", "value": 0.003112}, {"measurement": "Saccharin Enriched D6: f_S24-7; g_", "setting": "[2]; GF recipients, day 6, level 6", "value": "7.066E−05"}, {"measurement": "Saccharin Enriched D6: f_Streptococcaceae; g_Lactococcus", "setting": "[2]; GF recipients, day 6, level 6", "value": 0.0008509}, {"measurement": "Saccharin Enriched D6: f_[Odoribacteraceae]; g_Odoribacter", "setting": "[2]; GF recipients, day 6, level 6", "value": 0.004319}, {"measurement": "Saccharin Enriched D6: o_Clostridiales; f_; g_", "setting": "[2]; GF recipients, day 6, level 6", "value": 0.04275}]}]}
